Assay results: patent publication US10532075B2, “Use of a particular extract of propolis for combating the side effects of chemotherapy” (POLLENERGIE, priority 2014, dated 2020)

Assays:
[1] = in-vivo side effects of chemotherapy: change in weight of the animals
Excerpt: (§1) Wistar rats of approximately 200 g were used during this in-vivo experiment, at a rate of 8 animals per group. […] The animals are sacrificed 21 days after the injection of the chemotherapy agent. The weight and the different parameters of the blood formula will be tracked in these animals on days D+1, D+6 and D+14 and D+21 post-chemotherapy injection. The contents of endogenic antioxidants (glutathione=GSH) and the hepatocytic lipid peroxidation (MDA) levels will be evaluated on D+21.

plasmatic creatinine = experiment: in-vivo side effects of chemotherapy: plasmatic creatinine
Excerpt: as §1

plasma MDA = experiment: in-vivo side effects of chemotherapy: plasma MDA
Excerpt: as §1
(§2) The chemotherapy agents also have an impact on the primary intracellular antioxidant: glutathione (GSH) and on oxidative damage through the formation of diene conjugates, which is a reflection of the lipid peroxidation of the cellular membranes (the MDA) on the plasmatic level. These two measurements are complementary since normally a correct level of GSH makes it possible to maintain a relatively low level of MDA.

white blood cells = experiment: in-vivo side effects of chemotherapy: change in white blood cells
Excerpt: as §1

[2] = tested on: plasmatic glutathione (GSH); experiment: in-vivo side effects of chemotherapy: plasmatic glutathione
Excerpt: as §1, §2

red blood cells = experiment: in-vivo side effects of chemotherapy: change in red blood cells
Excerpt: as §1

[3] = tested on: Primary hepatocytes of rats; experiment: reversion of chemotherapy agent toxicity: hepatocyte cytolysis after propolis pretreatment, then tamoxifen; format: cell-based; conditions: tamoxifen alone
Procedure: Primary hepatocytes of rats were sampled and inoculated into a 96-well plate. 24 hours after the inoculation, the hepatocytes were treated with different doses of propolis (Example 1) for 24 hours.
The percentage of hepatic cells that are cytolyzed after a pretreatment with different concentrations of propolis and then subjected to a cytotoxic concentration of tamoxifen (25 μM) was evaluated and presented in the table below: […]

[4] = chemotherapy agent alone, D + 1 post-injection
[5] = chemotherapy agent alone, D + 6 post-injection
[6] = chemotherapy agent alone, D + 14 post-injection
[7] = chemotherapy agent alone, D + 21 post-injection
[8] = chemotherapy agent alone, D − 5 (before treatment)
[9] = chemotherapy agent alone, 21st day
[10] = chemotherapy agent alone, 21st day post-injection

O=P1(N(CCCl)CCCl)NCCCO1 (stereo not shown) [Cyclophosphamide, cyclophosphamide]
weight: Variation between D + 1 and D + 21 ([1]; chemotherapy agent alone): −14.9 | weight of the animals [1, 4]: 167.2 | weight of the animals [1, 5]: 157.7 | weight of the animals [1, 6]: 164 | weight of the animals [1, 7]: 152.3 | weight of the animals [1, 8]: 160.4 | plasmatic creatinine: Variation between D − 5 and D + 21 (plasmatic creatinine; chemotherapy agent alone): +59% | plasmatic creatinine (plasmatic creatinine; [4]): 7.25 | plasmatic creatinine (plasmatic creatinine; [7]): 10.14 | plasmatic creatinine (plasmatic creatinine; [8]): 6.38 | plasma MDA: Variation between D − 5 and D + 21 (plasma MDA; chemotherapy agent alone): +48% | plasma MDA (plasma MDA; [7]): 79.10 | plasma MDA (plasma MDA; [8]): 43.78 | white blood cells: Variation between D − 5 and D + 21 (white blood cells; chemotherapy agent alone): −49% | white blood cells (white blood cells; [4]): 3.33 | white blood cells (white blood cells; [5]): 2.96 | white blood cells (white blood cells; [6]): 10.20 | white blood cells (white blood cells; [7]): 3.19 | white blood cells (white blood cells; [8]): 6.30 | plasmatic glutathione: Variation between D − 5 and D + 21 ([2]; chemotherapy agent alone): −10% | effect on the level of plasma GSH (in words) [2, 9]: a little less distinct | plasmatic glutathione [2, 7]: 23.81 | plasmatic glutathione [2, 8]: 26.39 | red blood cells: Variation between D + 1 and D + 21 (red blood cells; chemotherapy agent alone): −46% | reduction in red blood cells (red blood cells; [10]): 45% | red blood cells (red blood cells; [4]): 5.94 | red blood cells (red blood cells; [5]): 4.23 | red blood cells (red blood cells; [6]): 3.80 | red blood cells (red blood cells; [7]): 3.22 | red blood cells (red blood cells; [8]): 6.51

COc1cccc2c1C(=O)c1c(O)c3c(c(O)c1C2=O)C[C@@](O)(C(=O)CO)C[C@@H]3O[C@H]1C[C@H](N)[C@@H](O)[C@H](C)O1 [Epirubicin, epirubicin]
weight of the animals ([1]; rat, in vivo): 150.2 | weight: Variation between D + 1 and D + 21 ([1]; rat, in vivo): −0.9 | plasmatic creatinine: Variation between D − 5 and D + 21 (plasmatic creatinine; rat, in vivo): +60% | plasma MDA (plasma MDA; rat, in vivo): 46.61 | plasma MDA: Variation between D − 5 and D + 21 (plasma MDA; rat, in vivo): +83% | white blood cells (white blood cells; rat, in vivo): 6.79 | white blood cells: Variation between D − 5 and D + 21 (white blood cells; rat, in vivo): −46% | effect on the level of plasma GSH (in words) ([2]; rat, in vivo): very distinct significant decrease in the level of plasma GSH | plasmatic glutathione ([2]; rat, in vivo): 23.86 | plasmatic glutathione: Variation between D − 5 and D + 21 ([2]; rat, in vivo): −46% | red blood cells (red blood cells; rat, in vivo): 6.73 10^6/µL | red blood cells: Variation between D + 1 and D + 21 (red blood cells; rat, in vivo): −48% | reduction in red blood cells (red blood cells; rat, in vivo): 48%

O=c1[nH]cc(F)c(=O)[nH]1 [Powder 5-FU, 5-FU]
weight: Variation between D + 1 and D + 21 ([1]; chemotherapy agent alone): −13.9 | weight of the animals [1, 4]: 157.6 | weight of the animals [1, 5]: 153.7 | weight of the animals [1, 6]: 147.9 | weight of the animals [1, 7]: 143.7 | weight of the animals [1, 8]: 153.5 | plasmatic creatinine: Variation between D − 5 and D + 21 (plasmatic creatinine; chemotherapy agent alone): +41% | plasmatic creatinine (plasmatic creatinine; [4]): 9 | plasmatic creatinine (plasmatic creatinine; [7]): 10.19 | plasmatic creatinine (plasmatic creatinine; [8]): 7.25 | plasma MDA: Variation between D − 5 and D + 21 (plasma MDA; chemotherapy agent alone): +41% | plasma MDA (plasma MDA; [7]): 62.85 | plasma MDA (plasma MDA; [8]): 44.49 | white blood cells: Variation between D − 5 and D + 21 (white blood cells; chemotherapy agent alone): −40% | white blood cells (white blood cells; [4]): 3.91 | white blood cells (white blood cells; [5]): 2.74 | white blood cells (white blood cells; [6]): 10.82 | white blood cells (white blood cells; [7]): 3.86 | white blood cells (white blood cells; [8]): 6.49 | plasmatic glutathione: Variation between D − 5 and D + 21 ([2]; chemotherapy agent alone): −20% | effect on the level of plasma GSH (in words) [2, 9]: very distinct significant decrease in the level of plasma GSH | plasmatic glutathione [2, 7]: 17.65 | plasmatic glutathione [2, 8]: 22.14 | red blood cells: Variation between D + 1 and D + 21 (red blood cells; chemotherapy agent alone): −55% | reduction in red blood cells (red blood cells; [10]): 55% | red blood cells (red blood cells; [4]): 6.56 | red blood cells (red blood cells; [5]): 4.19 | red blood cells (red blood cells; [6]): 3.05 | red blood cells (red blood cells; [7]): 2.94 | red blood cells (red blood cells; [8]): 6.51

CC/C(=C(\c1ccccc1)c1ccc(OCCN(C)C)cc1)c1ccccc1 [Tamoxifen, tamoxifen]
cytolysis of hepatocytes (in words) [3]: dose-dependent cytolysis of hepatocytes

CC(=O)O[C@@]12CO[C@@H]1C[C@H](O)[C@@]1(C)C(=O)[C@H](O)C3=C(C)[C@@H](OC(=O)[C@H](O)[C@@H](NC(=O)OC(C)(C)C)c4ccccc4)C[C@@](O)([C@@H](OC(=O)c4ccccc4)[C@H]21)C3(C)C [Taxotere, taxotere]
weight of the animals ([1]; rat, in vivo): 151.6 | weight: Variation between D + 1 and D + 21 ([1]; rat, in vivo): +18.6 | plasmatic creatinine (plasmatic creatinine; rat, in vivo): 7.60 | plasmatic creatinine: Variation between D − 5 and D + 21 (plasmatic creatinine; rat, in vivo): +52% | plasma MDA (plasma MDA; rat, in vivo): 45.90 | plasma MDA: Variation between D − 5 and D + 21 (plasma MDA; rat, in vivo): +88% | white blood cells (white blood cells; rat, in vivo): 6.44 | white blood cells: Variation between D − 5 and D + 21 (white blood cells; rat, in vivo): −51% | effect on the level of plasma GSH (in words) ([2]; rat, in vivo): very distinct significant decrease in the level of plasma GSH | plasmatic glutathione ([2]; rat, in vivo): 22.88 | plasmatic glutathione: Variation between D − 5 and D + 21 ([2]; rat, in vivo): −26% | red blood cells (red blood cells; rat, in vivo): 6.39 10^6/µL | red blood cells: Variation between D + 1 and D + 21 (red blood cells; rat, in vivo): −52% | reduction in red blood cells (red blood cells; rat, in vivo): 52%
